# ChEMBL document CHEMBL4814067, “An optimized analog of antimicrobial peptide Jelleine-1 shows enhanced antimicrobial activity against multidrug resistant P. aeruginosa and negligible toxicity in vitro and in vivo” (Eur J Med Chem, 2021)
# Active and inactive are the calls of the source. The rule behind the calls is not given here. Positions of bridges follow the written chain, without caps; N, C: chain ends. Non-standard residues stand in square brackets, D forms with d. Residues, ends and D or L forms follow the SMILES beside them. *: point of attachment. X1 = CC[C@H](C)CCCCC(=O)*; Dab = NCC[C@H](N)C(=O)O
# What was measured:
# [1] = system: Bacillus subtilis; assay: Antibacterial activity against Bacillus subtilis ATCC 23857 assessed as transparent well by visual inspection after 18 hrs by CLSI based-broth microdilution method; type: functional
# [2] = system: Staphylococcus epidermidis; assay: Antibacterial activity against Staphylococcus epidermidis ATCC 12228 assessed as transparent well by visual inspection after 18 hrs by CLSI based-broth microdilution method; type: functional
# [3] = system: Escherichia coli; assay: Antibacterial activity against ESBL-producing Escherichia coli clinical isolate 5 assessed as transparent well by visual inspection after 18 hrs by CLSI based-broth microdilution method; type: functional
# [4] = system: Staphylococcus aureus; assay: Antibacterial activity against methicillin resistant Staphylococcus aureus clinical isolate 4 assessed as transparent well by visual inspection after 18 hrs by CLSI based-broth microdilution method; type: functional
# [5] = system: Enterobacter sp.; assay: Antibacterial activity against Enterobacter sakazakii ATCC 29544 assessed as transparent well by visual inspection after 18 hrs by CLSI based-broth microdilution method; type: functional
# [6] = system: Escherichia coli; assay: Antibacterial activity against ESBL-producing Escherichia coli clinical isolate 4 assessed as transparent well by visual inspection after 18 hrs by CLSI based-broth microdilution method; type: functional
# [7] = system: Staphylococcus aureus; assay: Antibacterial activity against methicillin resistant Staphylococcus aureus clinical isolate 1 assessed as transparent well by visual inspection after 18 hrs by CLSI based-broth microdilution method; type: functional; details: C1
# [8] = system: Staphylococcus aureus; assay: Antibacterial activity against methicillin resistant Staphylococcus aureus clinical isolate 2 assessed as transparent well by visual inspection after 18 hrs by CLSI based-broth microdilution method; type: functional
# [9] = system: Escherichia coli; assay: Antibacterial activity against ESBL-producing Escherichia coli clinical isolate 1 assessed as transparent well by visual inspection after 18 hrs by CLSI based-broth microdilution method; type: functional
# [10] = system: Pseudomonas aeruginosa; assay: Antibacterial activity against Pseudomonas aeruginosa ATCC 27853 assessed as transparent well by visual inspection after 18 hrs by CLSI based-broth microdilution method; type: functional
# [11] = system: Escherichia coli; assay: Antibacterial activity against ESBL-producing Escherichia coli clinical isolate 2 assessed as transparent well by visual inspection after 18 hrs by CLSI based-broth microdilution method; type: functional
# [12] = system: Escherichia coli; assay: Antibacterial activity against ESBL-producing Escherichia coli clinical isolate 3 assessed as transparent well by visual inspection after 18 hrs by CLSI based-broth microdilution method; type: functional
# [13] = system: Staphylococcus aureus; assay: Antibacterial activity against methicillin resistant Staphylococcus aureus clinical isolate 3 assessed as transparent well by visual inspection after 18 hrs by CLSI based-broth microdilution method; type: functional
# [14] = system: Staphylococcus aureus; assay: Antibacterial activity against Staphylococcus aureus ATCC 29213 assessed as transparent well by visual inspection after 18 hrs by CLSI based-broth microdilution method; type: functional; details: C1 ATCC 29213
# [15] = system: Pseudomonas aeruginosa; assay: Antibacterial activity against Pseudomonas aeruginosa clinical isolate assessed as transparent well by visual inspection after 18 hrs by CLSI based-broth microdilution method; type: functional
# [16] = system: Escherichia coli; assay: Antibacterial activity against Escherichia coli ATCC 25922 assessed as transparent well by visual inspection after 18 hrs by CLSI based-broth microdilution method; type: functional
# [17] = system: Cell membrane; assay: Induction of outer membrane permeabilization in Escherichia coli using NPN hydrophobic fluorescent probe at 1 to 8 times of MIC measured for 15 mins by multimode reader
# [18] = system: Cell membrane; assay: Induction of inner membrane permeabilization in Escherichia coli ML-35 assessed as increase in ONPG at 1 to 8 times of MIC measured 100 mins by multimode reader
# [19] = system: Erythrocyte; assay: Haemolytic activity in human erythrocytes at 256 uM by optical absorption assay; type: ADME, cell-based
# [20] = system: Pseudomonas aeruginosa; assay: Inhibition of biofilm formation in multidrug-resistant Pseudomonas aeruginosa at 256 uM measured after 24 hrs by crystal violet staining based assay; type: functional, organism-based
# [21] = system: RAW264.7; assay: Cytotoxicity against mouse RAW264.7 assessed as reduction in cell viability measured after 24 hrs by MTT assay; type: cell-based; details: raw264.7, 24 h
# [22] = system: NIH3T3; assay: Cytotoxicity against mouse NIH/3T3 assessed as reduction in cell viability measured after 24 hrs by MTT assay; type: cell-based; details: nih3t3, 24 h
# [23] = system: Escherichia coli; assay: Bactericidal activity against Escherichia coli assessed as killing effect at 2 times MIC measured at 60 mins by bacterial colony counting assay; type: functional; details: 1 h
# [24] = system: Staphylococcus aureus; assay: Bactericidal activity against Staphylococcus aureus assessed as killing effect at 2 times MIC measured at 60 mins by bacterial colony counting assay; type: functional; details: 1 h
# [25] = system: Staphylococcus aureus; assay: Bactericidal activity against Staphylococcus aureus assessed as killing effect at 1 times MIC measured at 120 mins by bacterial colony counting assay; type: functional, organism-based
# [26] = system: HeLa; assay: Cytotoxicity against human HeLa cells assessed as reduction in cell viability measured after 24 hrs by MTT assay; type: cell-based
# [27] = system: Erythrocyte; assay: Haemolytic activity in human erythrocytes by optical absorption assay; type: ADME, cell-based
# [28] = system: Escherichia coli; assay: Bactericidal activity against Escherichia coli assessed as killing effect at 1 times MIC measured at 120 mins by bacterial colony counting assay; type: functional, organism-based
compound,measurement,setting,value
CC[C@H](C)CCCCC(=O)N[C@@H](CCN)C(=O)N[C@H](C(=O)N[C@@H](CCN)C(=O)N[C@H]1CCNC(=O)[C@H]([C@@H](C)O)NC(=O)[C@H](CCN)NC(=O)[C@H](CCN)NC(=O)[C@H](CC(C)C)NC(=O)[C@@H](Cc2ccccc2)NC(=O)[C@H](CCN)NC1=O)[C@@H](C)O (X1-[Dab]T[Dab][Dab][Dab][dF]L[Dab][Dab]T; lactam 4-C),MIC,[1],2 µM
same,MIC,[2],2 µM
same,MIC,[3],0.5 µM
same,MIC,[4],8 µM
same,MIC,[5],0.5 µM
same,MIC,[6],0.5 µM
same,MIC,[7],8 µM
same,MIC,[8],8 µM
same,MIC,[9],0.5 µM
same,MIC,[10],1 µM
same,MIC,[11],0.5 µM
same,MIC,[12],0.5 µM
same,MIC,[13],8 µM
same,MIC,[14],8 µM
same,MIC,[15],1 µM
same,MIC,[16],0.5 µM
H-PFKLKLHL-OH,MIC,[1],32 µM
same,MIC,[2],32 µM
same,MIC,[5],32 µM
same,MIC,[10],32 µM
same,MIC,[14],128 µM
same,MIC,[16],32 µM
H-PFKLKLKL-OH,MIC,[1],16 µM
same,MIC,[2],16 µM
same,MIC,[5],32 µM
same,MIC,[10],32 µM
same,MIC,[14],128 µM
same,MIC,[16],32 µM
H-PFKLSLHL-OH,MIC,[1],32 µM
same,MIC,[2],64 µM
same,MIC,[3],32 µM
same,Activity,[17],Dose-Dependent Effect
same,MIC,[4],128 µM
same,Activity,[18],Active
same,MIC,[5],64 µM
same,MIC,[6],32 µM
same,MIC,[7],128 µM
same,Activity,[19],Toxic
same,MIC,[8],128 µM
same,MIC,[9],32 µM
same,MIC,[10],32 µM
same,MIC,[11],32 µM
same,MIC,[12],32 µM
same,MIC,[13],128 µM
same,inhibition,[20],Active
same,MIC,[14],128 µM
same,MIC,[15],32 µM
same,MIC,[16],32 µM
H-PFKLSLKL-OH,MIC,[1],16 µM
same,MIC,[2],16 µM
same,MIC,[5],32 µM
same,MIC,[10],32 µM
same,MIC,[14],128 µM
same,MIC,[16],32 µM
H-PFRLRLHL-OH,MIC,[1],16 µM
same,MIC,[2],34 µM
same,MIC,[5],32 µM
same,MIC,[10],32 µM
same,MIC,[14],128 µM
same,MIC,[16],16 µM
H-PFRLRLRL-OH,MIC,[1],8 µM
same,MIC,[2],16 µM
same,MIC,[3],8 µM
same,Activity,[21],Non-Toxic
same,Activity,[17],Dose-Dependent Effect
same,MIC,[4],64 µM
same,Activity,[18],Active
same,MIC,[5],32 µM
same,MIC,[6],8 µM
same,MIC,[7],64 µM
same,MIC,[8],64 µM
same,MIC,[9],8 µM
same,Activity,[22],Non-Toxic
same,MIC,[10],8 µM
same,MIC,[11],8 µM
same,Activity,[23],100%
same,Activity,[24],100%
same,MIC,[12],8 µM
same,MIC,[13],64 µM
same,Activity,[25],Active
same,inhibition,[20],Active
same,MIC,[14],64 µM
same,Activity,[26],Non-Toxic
same,Activity,[27],Non-Toxic
same,MIC,[15],8 µM
same,Activity,[28],Active
same,MIC,[16],8 µM
H-PFRLSLHL-OH,MIC,[1],16 µM
same,MIC,[2],34 µM
same,MIC,[5],32 µM
same,MIC,[10],32 µM
same,MIC,[14],128 µM
same,MIC,[16],32 µM
H-PFRLSLRL-OH,MIC,[1],16 µM
same,MIC,[2],16 µM
same,MIC,[5],16 µM
same,MIC,[10],32 µM
same,MIC,[14],64 µM
same,MIC,[16],8 µM
H-PWKLKLHL-OH,MIC,[1],16 µM
same,MIC,[2],32 µM
same,MIC,[5],16 µM
same,MIC,[10],32 µM
same,MIC,[14],64 µM
same,MIC,[16],16 µM
H-PWKLKLKL-OH,MIC,[1],16 µM
same,MIC,[2],16 µM
same,MIC,[5],16 µM
same,MIC,[10],64 µM
same,MIC,[14],32 µM
same,MIC,[16],16 µM
H-PWKLSLHL-OH,MIC,[1],16 µM
same,MIC,[2],32 µM
same,MIC,[5],16 µM
same,MIC,[10],16 µM
same,MIC,[14],64 µM
same,MIC,[16],16 µM
H-PWKLSLKL-OH,MIC,[1],16 µM
same,MIC,[2],16 µM
same,MIC,[5],8 µM
same,MIC,[10],32 µM
same,MIC,[14],32 µM
same,MIC,[16],16 µM
H-PWRLRLHL-OH,MIC,[1],8 µM
same,MIC,[2],16 µM
same,MIC,[5],8 µM
same,MIC,[10],32 µM
same,MIC,[14],32 µM
same,MIC,[16],8 µM
H-PWRLSLHL-OH,MIC,[1],16 µM
same,MIC,[2],8 µM
same,MIC,[5],16 µM
same,MIC,[10],32 µM
same,MIC,[14],32 µM
same,MIC,[16],16 µM
H-PWRLSLRL-OH,MIC,[1],8 µM
same,MIC,[2],16 µM
same,MIC,[5],8 µM
same,MIC,[10],8 µM
same,MIC,[14],32 µM
same,MIC,[16],8 µM
